Positions of bridges follow the written chain, without caps; N, C: chain ends. Non-standard residues stand in square brackets, D forms with d. Residues, ends and D or L forms follow the SMILES beside them. *: point of attachment. Ileψ(thiazoline)Cys = CC[C@H](C)[C@H](N)C1=N[C@H](C(=O)*)CS1; dOrn = NCCC[C@@H](N)C(=O)O
Experiments:
[1] = Growth promotion and feed efficiency in chicks, Example VII (Table I); assay type: in vivo, broiler cross chicks; conditions: bacitracin 4 g/T alone in basal ration (negative control); 4 weeks
Excerpt: One hundred 20 day-old broiler cross chicks were weight equalized into 15 groups of eight chicks each and placed in battery brooders. The 40 chick treatment groups (five replicates) were fed the one of the three rations described below for a 4 week period. Weekly measurements of body weights and feed consumption were made by replicate, and these measurements used to calculate weight gain and feed efficiency.
The commercial type broiler starter basal ration which was used in this study was designated as the Basal Ration, and had the following composition:
The preceding basal ration was mixed with bacitracin at a level of 4 g/T as the only growth stimulant to simulate commercial practice. This mixture was designated as the Basal Ration + Bacitracin (4 g/T) and constituted the negative control in this study.
A second ration was prepared by fortifying the Basal Ration + bacitracin described above with the Product from Example I above at a level of 200 g/T, and was designated as Basal Ration + Bacitracin + Product of Example I (200 g/T). A third ration was prepared by fortifying the Basal Ration + bacitracin described above with chlortetracycline (CTC) at a level of 200 g/T, and was designated as Basal Ration + Bacitracin + Chlortetracycline (200 g/T). Chlortetracycline served as the positive control in this test because it had shown strong growth promotion in numerous previous tests at this therapeutic level.
The commercial value of the product of Example I is indicated by the fact that these significant responses were obtained in addition to the growth stimulation provided by the presence of bacitracin in the ration. It is important to note that the negative controls in this example and in Examples VIII and X which follow were characterized by rapid rates of growth. This high plane of growth and feed efficiency performance on the part of the negative controls makes the responses to the test compounds all the more meaningful.
The term "growth promotion" is used herein to describe the beneficial effect of a compound in eliciting a more rapid rate of weight gain when compared to the weight gain of control animals not fed the compound. "Feed efficiency" is a term regularly used in animal husbandry and is a measure of the pounds of feed required to produce a pound of gain in the weight of the animal. A lower mathmatical value for feed efficiency reflects improved performance. […] In this case, as in the case of the weight gain (fifth column), an improved performance is indicated by a higher positive number.

[2] = Growth promotion in chicks at low feed levels, Example VIII (Table II); assay type: in vivo, broiler cross chicks; conditions: 4 g/T in basal ration; 4 weeks
Excerpt: Day old broiler cross chicks were weight equalized into groups of eight chicks each and were placed in battery brooders. The 32 chick treatment groups (four replicates) were fed one of the five rations described below for a 4 week period. Weekly measurements of body weights and feed consumption were made by replicate, and these measurements used to calculate weight gain and feed efficiency.
The basal ration was the basal ration used in Example VII above. The remaining five rations were obtained by mixing the indicated quantities of bacitracin (4 g/T), chlortetracycline (10 g/T), product of Example I (10 g/T), and product of Example III of U.S. Pat. No. 3,542,784 -- Burch (10 g/T) as growth promotants with the basal ration.

[3] = Growth promotion in chicks, Example XI (Table V); assay type: in vivo, broiler cross chicks; conditions: for feed efficiency (in words) / growth rate (in words): 25 g/T; for Average 4 Week Performance: Feed Efficiency / Average 4 Week Performance: Gain / Improved Response Over Basal Ration: Feed Efficiency / Improved Response Over Basal Ration: Gain: 25 g/T in basal ration, 4 weeks
Excerpt: (§1) This example compares growth promotion activity of the product of Example I with other growth promotants at a concentration of 25 g/T in the Basal Ration described in Example VII. The other growth promotants include the product described in Example I of U.S. Pat. No. 3,542,784 -- Burch and quinoxaline-1,4-dioxide. Day old broiler cross chicks were weight equalized into groups of eight chicks each, and four replicates of eight chicks each were fed the experimental rations over a 4 week period.
The growth promotion tests described in Example X were repeated with the exception that five replicates of eight chicks each were fed the formulations described in Table V for 4 weeks.

[4] = system: Streptococcus faecalis; experiment: Bactericide test, Streptococcus faecalis (agar streak plate); assay type: cell-based; conditions: 100% inhibition at lower concentrations
Excerpt: (§2) Test formulations were examined for bactericidal and/or bacteriostatic activity against the test organisms shown in Tables A and B. These organisms were chosen as being representative of commercially important pathogens affecting animal agriculture. The antibiotic chlortetracycline was chosen as a positive control, since it has a broad spectrum of activity against a large number of organisms, and its activity can be used for comparative purposes.
(§3) Basic test formulations of the product of Examples I, II, III, and of chlortetracycline were prepared by dissolving 16 mg (0.016 g) in 2.0 ml of stock emulsifier solution (0.25% Triton X-155 in acetone by volume) and making each solution up to 50 ml with deionized water. The concentration of the test compound in the basic formulation was 320 ppm. Lower concentrations of the test compound were obtained by diluting the basic formulation with a 4% solution of the stock emulsifier in deionized water so that each dilution in the series differed only in test compound content.
(§4) Nutrient-tryptic soy agar (NTA) consisting of 2.0% Difco Bactoagar 0.8% nutrient broth (Difco), and 0.5% tryptic soy broth (Difco) was prepared and sterilized by autoclaving. A 2 ml aliquot of each test formulation was added to 8 ml of molten NTA. This mixture was then plated in a sterile polystyrene petri dish (100 × 15 mm). After the agar was set, suspensions of each of the test organisms were simultaneously streaked onto the surface of the agar. The inoculated plates were incubated for 48 hr at 28°C. The inhibition of growth of each organism was rated by visual comparison with the organism developing on non-treated agar. Growth inhibition reported as per cent control was rated in three categories as follows: 0% control, growth equivalent to that on non-treated agar; 50% control, sparse development and separated colonies; 100% control, no visible growth or development of colonies.
(§5) Test formulations of the product of Example IV were examined for bactericidal and/or bacteriostatic activity against the test organisms shown in Table B using the Bactericide Test described in Example V. The inhibition of organism growth with each diluted test formulation was rated visually by comparison with the organism developing on a non-treated control agar plate. Growth inhibition reported as per cent control was rated in three categories as follows: 0% control, growth equivalent to that on non-treated agar; 50% control is sparse development and separated colonies; and 100% control, development of individual colonies was not apparent.

[5] = system: Salmonella cholerasuis; experiment: Bactericide test, Salmonella cholerasuis (agar streak plate); assay type: cell-based; conditions: Salmonella, read-out: % Control In Vitro Growth
Excerpt: as §2, §3, §4, §5

[6] = system: Salmonella gallinarum; experiment: Bactericide test, Salmonella gallinarum (agar streak plate); assay type: cell-based; conditions: Salmonella enterica, GALLINARUM, read-out: % Control In Vitro Growth
Excerpt: as §2, §3, §4, §5

[7] = system: Erysipelothrix rhusiopathiae; experiment: Bactericide test, Erysipelothrix rhusiopathiae (agar streak plate); assay type: cell-based; conditions: 100% inhibition at lower concentrations
Excerpt: as §2, §3, §4

[8] = system: Bordetella bronchiseptica; experiment: Bactericide test, Bordetella bronchiseptica (agar streak plate); assay type: cell-based; conditions: 100% inhibition at lower concentrations
Excerpt: as §2, §3, §4

[9] = system: Streptococcus agalactiae; experiment: Bactericide test, Streptococcus agalactiae (agar streak plate); assay type: cell-based; conditions: 100% inhibition at lower concentrations
Excerpt: as §2, §3, §4

[10] = system: Streptococcus group E; experiment: Bactericide test, Streptococcus group E (agar streak plate); assay type: cell-based; conditions: 100% inhibition at lower concentrations
Excerpt: as §2, §3, §4

[11] = system: Vibrio coli; experiment: Bactericide test, Vibrio coli (agar streak plate); assay type: cell-based; conditions: 100% inhibition at lower concentrations
Excerpt: as §2, §3, §4

[12] = Growth promotion in chicks at 25 g/T, Example X (Table IV); assay type: in vivo, broiler cross chicks
Excerpt: as §1

[13] = 25 g/T in basal ration, 4 weeks

SMILES: CC[C@H](C)[C@H](N)C1=N[C@H](C(=O)N[C@@H](CC(C)C)C(=O)N[C@H](CCC(=O)O)C(=O)N[C@H](C(=O)N[C@H]2CCCCNC(=O)[C@H](CC(N)=O)NC(=O)[C@@H](CC(=O)O)NC(=O)[C@H](Cc3cnc[nH]3)NC(=O)[C@@H](Cc3ccccc3)NC(=O)[C@H]([C@@H](C)CC)NC(=O)[C@@H](CCCN)NC2=O)[C@@H](C)CC)CS1 [Bacitracin] ({Ileψ(thiazoline)Cys}-L[dE]IK[dOrn]I[dF]H[dD]N; lactam 4-C)
- Average 4 Week Performance: Feed Efficiency [1]: 1.721
- Average 4 Week Performance: Gain [1]: 694.5 gms
- Average 4 Week Performance: Feed Efficiency [2]: 1.739
- Average 4 Week Performance: Gain [2]: 703.6 g
- Improved Response Over Basal Ration: Feed Efficiency [2]: +1.2%
- Improved Response Over Basal Ration: Gain [2]: -2.3%
- feed efficiency (in words) [3]: moderate improvements in feed efficiencies
- growth rate (in words) [3]: slight improvements in growth rates
- Average 4 Week Performance: Feed Efficiency [3]: 1.746
- Average 4 Week Performance: Gain [3]: 741.3 g
- Improved Response Over Basal Ration: Feed Efficiency [3]: +3.1%
- Improved Response Over Basal Ration: Gain [3]: +1.2%

SMILES: O=[N+]([O-])c1ccc(C=Cc2nc(Nc3ccccc3)c3ccccc3n2)o1 [Example IV, 2-[2-(5-nitro-2-furyl)vinyl]-4-anilinoquinazoline]
- effectiveness compared with chlortetracycline (in words) [4]: considerably more effective
- inhibition of growth at 0.007 ppm ([5]; 0.007 ppm): 0%
- inhibition of growth at 0.01 ppm ([5]; 0.01 ppm): 0%
- inhibition of growth at 0.03 ppm ([5]; 0.03 ppm): 0%
- inhibition of growth at 0.06 ppm ([5]; 0.06 ppm): 0%
- inhibition of growth at 0.125 ppm ([5]; 0.125 ppm): 0%
- inhibition of growth at 0.25 ppm ([5]; 0.25 ppm): 0%
- inhibition of growth at 0.5 ppm ([5]; 0.5 ppm): 0%
- inhibition of growth at 1 ppm ([5]; 1 ppm): 50%
- inhibition of growth at 2 ppm ([5]; 2 ppm): 50%
- inhibition of growth at 4 ppm ([5]; 4 ppm): 50%
- inhibition of growth at 0.007 ppm ([6]; 0.007 ppm): 0%
- inhibition of growth at 0.01 ppm ([6]; 0.01 ppm): 0%
- inhibition of growth at 0.03 ppm ([6]; 0.03 ppm): 0%
- inhibition of growth at 0.06 ppm ([6]; 0.06 ppm): 0%
- inhibition of growth at 0.125 ppm ([6]; 0.125 ppm): 0%
- inhibition of growth at 0.25 ppm ([6]; 0.25 ppm): 100%
- inhibition of growth at 0.5 ppm ([6]; 0.5 ppm): 100%
- inhibition of growth at 1 ppm ([6]; 1 ppm): 100%
- inhibition of growth at 2 ppm ([6]; 2 ppm): 100%
- inhibition of growth at 4 ppm ([6]; 4 ppm): 100%
- effectiveness compared with chlortetracycline (in words) [7]: considerably more effective
- effectiveness compared with chlortetracycline (in words) [8]: considerably more effective
- effectiveness compared with chlortetracycline (in words) [9]: considerably more effective
- effectiveness compared with chlortetracycline (in words) [10]: considerably more effective
- effectiveness compared with chlortetracycline (in words) [11]: considerably more effective

SMILES: [O-][n+]1cc[n+]([O-])c2ccccc21 [Quinoxaline-1,4-dioxide, quinoxaline-1,4-dioxide]
- effect on feed efficiency (in words) ([12]; 25 g/T): did not have any apparent effect
- growth response (in words) ([12]; 25 g/T): did not have any apparent effect
- Average 4 Week Performance: Feed Efficiency [12, 13]: 1.550
- Average 4 Week Performance: Gain [12, 13]: 756.6 g
- Improved Response Over Basal Ration: Feed Efficiency [12, 13]: +0.1%
- Improved Response Over Basal Ration: Gain [12, 13]: -1.1%
- feed efficiency (in words) [3]: improvement in feed efficiency
- growth rate (in words) [3]: questionable effect on growth
- Average 4 Week Performance: Feed Efficiency [3]: 1.709
- Average 4 Week Performance: Gain [3]: 740.8 g
- Improved Response Over Basal Ration: Feed Efficiency [3]: +5.2%
- Improved Response Over Basal Ration: Gain [3]: +1.1%
